Laboratory results as given in patent publication US4992292A, “Tris-hydroxymethyl alkane dicarboxylate extended esters as low calorie fat mimetics” (Nabisco Brands, Inc., priority 1990, dated 1991).
Values belong to the molecule of their own block, whether it stands above or below them.

Legend:
[1] = in vivo animal feeding study for caloric availability; set-up: species or system Sprague-Dawley rats; conditions: rats, diet of 50% fort and 21% test compound, 14 days; from weight gain and corn oil base line data
Description: This example illustrates how the novel fat mimetics of this invention are screened for caloric availability by a carefully controlled in vivo animal feeding study.
An experimental relationship between total calories ingested and animal body weight gain is established by monitoring the body weight gain associated with consumption of a nutritionally balanced diet containing varying concentrations of a reference substance such as corn oil which has a known caloric availabilty. Correlations between total calories ingested and body weight gain are excellent (r=0.99).
Caloric availability of an unknown substance is evaluated by substituting a specific weight of the unknown substance for the reference substance and observing the body weight gain. The gain in body weight is equated to a total number of calories using the correlation previously established for the reference data. The estimated number of calories ingested are divided by the weight of unknown substance to give the apparent calories per gram for the unknown substance. Generally speaking, in these bioavailability studies, the degree of perianal pelt soiling correlates with reduced bioavailability.
The test animals are six-week-old male Sprague-Dawley rats obtained from the Portage, Michigan facility of the Charles River Laboratories, Inc. After acclimation for 15 days, the test duration is I4 days. […]

[2] = rats fed ad libitum; cited from earlier work
pancreatic lipase = conditions: cited from earlier work
[3] = rat, in vivo; cited from earlier work

caloric availability upon being metabolized [1]: about 3.3 kcal/gram
Molecule: CCCCCCCC/C=C\CCCCCCCC(=O)OCC(C)(COC(=O)CCCCCCC/C=C\CCCCCCCC)COC(=O)CCCCCCC/C=C\CCCCCCCC [Example 1, 1,1,1-Tris hydroxymethylethane trioleate]

Molecule: CCCCCCCC(=O)OCC(COC(=O)CCCCCCC)(COC(=O)CCCCCCC)COC(=O)CCCCCCC [pentaerythritol tetracaprylate]
food consumption versus control animals on a normal diet [2]: consumed more than control animals
hydrolysis by the enzyme pancreatic lipase (pancreatic lipase): not attacked, hydrolyzed

Molecule: corn oil
caloric availability of reference [3]: 9.0 calories/gram
